Assay results published in patent publication US20230053540A1, “TREATMENT OF LIVER INJURY” (Massachusetts Institute of Technology, priority 2019, published 2023).

System: hepatocytes
Assay: Seq-Well scRNA-Seq of hepatocytes after APAP overdose (signature scores, DEG vs untreated)
Format: in vivo, mouse

**Q.** What does the source list for `CC(=O)Nc1ccc(O)cc1` [APAP, acetaminophen]?
**A.** Slc25a10 avg_logFC (A96 vs untreated (UT)): 0.2508; Slc25a10 pct.1 (A96 vs untreated (UT)): 0.701; Slc25a13 avg_logFC (A96 vs untreated (UT)): 0.2573; Slc25a13 pct.1 (A96 vs untreated (UT)): 0.786; Slc25a20 avg_logFC (A96 vs untreated (UT)): 0.3215; Slc25a20 pct.1 (A96 vs untreated (UT)): 0.671; Slc25a47 avg_logFC (A96 vs untreated (UT)): 0.2777; Slc25a47 pct.1 (A96 vs untreated (UT)): 0.96; Slc27a2 avg_logFC (A96 vs untreated (UT)): 0.3931; Slc27a2 pct.1 (A96 vs untreated (UT)): 0.988; Slc27a5 avg_logFC (A96 vs untreated (UT)): 0.2567; Slc27a5 pct.1 (A96 vs untreated (UT)): 0.958; Slc40a1 avg_logFC (A96 vs untreated (UT)): 0.336; Slc40a1 pct.1 (A96 vs untreated (UT)): 0.551; Slco1a4 avg_logFC (A96 vs untreated (UT)): 0.4652; Slco1a4 pct.1 (A96 vs untreated (UT)): 0.507; Snord13 avg_logFC (A96 vs untreated (UT)): 0.2659; Snord13 pct.1 (A96 vs untreated (UT)): 0.386; Snord118 avg_logFC (A96 vs untreated (UT)): 0.5783; Snord118 pct.1 (A96 vs untreated (UT)): 0.564; St3gal5 avg_logFC (A96 vs untreated (UT)): 0.3862; St3gal5 pct.1 (A96 vs untreated (UT)): 0.71; Sult1a1 avg_logFC (A96 vs untreated (UT)): 0.522; Sult1a1 pct.1 (A96 vs untreated (UT)): 0.881; Sult1d1 avg_logFC (A96 vs untreated (UT)): 0.4421; Sult1d1 pct.1 (A96 vs untreated (UT)): 0.855; Tat avg_logFC (A96 vs untreated (UT)): 0.2529; Tat pct.1 (A96 vs untreated (UT)): 0.981; Tgoln1 avg_logFC (A96 vs untreated (UT)): 0.3801; Tgoln1 pct.1 (A96 vs untreated (UT)): 0.756; Tmbim6 avg_logFC (A96 vs untreated (UT)): 0.2624; Tmbim6 pct.1 (A96 vs untreated (UT)): 0.988; Tmed5 avg_logFC (A96 vs untreated (UT)): 0.3754; Tmed5 pct.1 (A96 vs untreated (UT)): 0.714; Tmem106b avg_logFC (A96 vs untreated (UT)): 0.3285; Tmem106b pct.1 (A96 vs untreated (UT)): 0.727; Tob1 avg_logFC (A96 vs untreated (UT)): 0.3731; Tob1 pct.1 (A96 vs untreated (UT)): 0.649; Trp53inp1 avg_logFC (A96 vs untreated (UT)): 0.3647; Trp53inp1 pct.1 (A96 vs untreated (UT)): 0.551; Tsc22d3 avg_logFC (A96 vs untreated (UT)): 0.3425; Tsc22d3 pct.1 (A96 vs untreated (UT)): 0.534; Ttpa avg_logFC (A96 vs untreated (UT)): 0.6266; Ttpa pct.1 (A96 vs untreated (UT)): 0.98; Ttr avg_logFC (A96 vs untreated (UT)): 0.3459; Ttr pct.1 (A96 vs untreated (UT)): 1; Ubc avg_logFC (A96 vs untreated (UT)): 0.3578; Ubc pct.1 (A96 vs untreated (UT)): 0.968; Ubr3 avg_logFC (A96 vs untreated (UT)): 0.2529; Ubr3 pct.1 (A96 vs untreated (UT)): 0.585; Uhrf1bp1l avg_logFC (A96 vs untreated (UT)): 0.2559; Uhrf1bp1l pct.1 (A96 vs untreated (UT)): 0.415; Upp2 avg_logFC (A96 vs untreated (UT)): −0.2859; Upp2 pct.1 (A96 vs untreated (UT)): 0.545; Uroc1 avg_logFC (A96 vs untreated (UT)): 0.3074; Uroc1 pct.1 (A96 vs untreated (UT)): 0.726; Wbp1l avg_logFC (A96 vs untreated (UT)): 0.3456; Wbp1l pct.1 (A96 vs untreated (UT)): 0.789; Zfp36l1 avg_logFC (A96 vs untreated (UT)): 0.3298; Zfp36l1 pct.1 (A96 vs untreated (UT)): 0.601; Zfp91 avg_logFC (A96 vs untreated (UT)): 0.3741; Zfp91 pct.1 (A96 vs untreated (UT)): 0.693; Zfp683 avg_logFC (A96 vs untreated (UT)): 0.3027; Zfp683 pct.1 (A96 vs untreated (UT)): 0.476; mt-Co1 avg_logFC (A96 vs untreated (UT)): −0.8459; mt-Co1 pct.1 (A96 vs untreated (UT)): 0.983; mt-Co2 avg_logFC (A96 vs untreated (UT)): −1.033; mt-Co2 pct.1 (A96 vs untreated (UT)): 0.313; mt-Co3 avg_logFC (A96 vs untreated (UT)): −1.046; mt-Co3 pct.1 (A96 vs untreated (UT)): 0.213; mt-Cytb avg_logFC (A96 vs untreated (UT)): −0.7105; mt-Cytb pct.1 (A96 vs untreated (UT)): 0.99; mt-Nd1 avg_logFC (A96 vs untreated (UT)): −0.5843; mt-Nd1 pct.1 (A96 vs untreated (UT)): 0.996; mt-Nd2 avg_logFC (A96 vs untreated (UT)): −0.7197; mt-Nd2 pct.1 (A96 vs untreated (UT)): 0.994; mt-Nd4 avg_logFC (A96 vs untreated (UT)): −0.8488; mt-Nd4 pct.1 (A96 vs untreated (UT)): 0.986; mt-Nd5 avg_logFC (A96 vs untreated (UT)): −0.573; mt-Nd5 pct.1 (A96 vs untreated (UT)): 0.964; mt-Rnr1 avg_logFC (A96 vs untreated (UT)): −0.3398; mt-Rnr1 pct.1 (A96 vs untreated (UT)): 1; mt-Rnr2 avg_logFC (A96 vs untreated (UT)): −0.3332; mt-Rnr2 pct.1 (A96 vs untreated (UT)): 1; mt-Tp avg_logFC (A96 vs untreated (UT)): 0.3085; mt-Tp pct.1 (A96 vs untreated (UT)): 0.329; Acaa1b avg_logFC (APAP composite vs UT): −0.8508; Agt avg_logFC (APAP composite vs UT): 0.5205; Ahsg avg_logFC (APAP composite vs UT): 0.2925; Akr1c6 avg_logFC (APAP composite vs UT): −1.586; Ang avg_logFC (APAP composite vs UT): 0.7089; Angptl3 avg_logFC (APAP composite vs UT): 0.7089; Apoa2 avg_logFC (APAP composite vs UT): −0.5455; Apoc1 avg_logFC (APAP composite vs UT): −0.8713; Apoc2 avg_logFC (APAP composite vs UT): 0.7821; Apoe avg_logFC (APAP composite vs UT): −0.4213; Apoh avg_logFC (APAP composite vs UT): 0.4118; Cdo1 avg_logFC (APAP composite vs UT): 0.517; Ces1c avg_logFC (APAP composite vs UT): 0.4668; Chchd1 avg_logFC (APAP composite vs UT): 0.7207; Chchd10 avg_logFC (APAP composite vs UT): 0.7207
